Measurements as given in publication PMC11562016 (Structure (London, England : 1993), 2024).
“And” between values parts separate entries of the source, which are not always exact repeats. Equal values may be shown once. Read-outs that look alike come from different tables or passages of the source.

Tests used:
[1] = biological target: human α1β GlyR (α1:β, α1wtβwt) (Homo sapiens, UniProt P23415+P48167); conditions: for τdes: desensitization
[2] = biological target: α1:βY231A GlyR (Homo sapiens, UniProt P23415+P48167, Y253A)
[3] = biological target: α1:βR86TY231A GlyR (Homo sapiens, UniProt P23415+P48167, R108T/Y253A)
[4] = biological target: α1:α1-β-α1 FYF (α1: α1F207A-βY231A-α1F207A) GlyR (Homo sapiens, UniProt P23415+P48167, F235A/Y253A)
[5] = biological target: α1:α1-β-α1 RFYF (α1: α1R65DF207A-βY231A-α1F207A) GlyR (Homo sapiens, UniProt P23415+P48167, F235A/R93D/Y253A)
[6] = biological target: α1F207A:β GlyR (Homo sapiens, UniProt P23415+P48167, F235A)
[7] = biological target: α1F207A:α1-β GlyR (Homo sapiens, UniProt P23415+P48167, F235A)
[8] = biological target: α1F207A:α1-β-α1 GlyR (Homo sapiens, UniProt P23415+P48167, F235A)
[9] = system: α1sβsg GlyR; conditions: for τdes: desensitization
[10] = system: α1β GlyR
[11] = system: α1β GlyR with mutation of a single α-α or α-β site; conditions: Supplementary Fig.S4
[12] = glycine dose-response, Hill fit

Chain of human α1β GlyR (α1:β, α1wtβwt) (P23415 29-457): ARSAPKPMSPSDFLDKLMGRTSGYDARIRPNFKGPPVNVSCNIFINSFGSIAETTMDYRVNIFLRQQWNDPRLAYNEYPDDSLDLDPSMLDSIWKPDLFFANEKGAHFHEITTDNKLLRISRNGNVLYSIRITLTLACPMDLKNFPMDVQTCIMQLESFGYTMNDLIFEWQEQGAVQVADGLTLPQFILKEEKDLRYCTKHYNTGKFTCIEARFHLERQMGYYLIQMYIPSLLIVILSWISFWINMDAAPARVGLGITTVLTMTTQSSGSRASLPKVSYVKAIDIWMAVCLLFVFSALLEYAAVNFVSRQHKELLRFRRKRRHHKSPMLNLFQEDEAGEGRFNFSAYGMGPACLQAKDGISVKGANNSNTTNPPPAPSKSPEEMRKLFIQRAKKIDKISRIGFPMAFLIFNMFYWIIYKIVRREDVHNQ
Chain of human α1β GlyR (α1:β, α1wtβwt) (P48167 23-497): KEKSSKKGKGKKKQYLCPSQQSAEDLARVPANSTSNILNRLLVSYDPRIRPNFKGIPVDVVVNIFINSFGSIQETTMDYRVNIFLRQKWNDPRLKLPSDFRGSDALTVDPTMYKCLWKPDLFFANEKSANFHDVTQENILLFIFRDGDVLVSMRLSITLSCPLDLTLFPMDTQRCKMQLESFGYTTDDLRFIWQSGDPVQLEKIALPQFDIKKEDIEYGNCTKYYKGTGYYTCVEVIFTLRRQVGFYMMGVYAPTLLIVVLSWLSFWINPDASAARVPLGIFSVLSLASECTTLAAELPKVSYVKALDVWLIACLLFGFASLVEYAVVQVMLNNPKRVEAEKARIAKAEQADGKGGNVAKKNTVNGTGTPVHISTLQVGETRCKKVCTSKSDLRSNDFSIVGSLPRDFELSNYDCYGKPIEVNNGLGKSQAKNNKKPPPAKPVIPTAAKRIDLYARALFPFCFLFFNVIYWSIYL
Chain of α1:α1-β-α1 RFYF (α1: α1R65DF207A-βY231A-α1F207A) GlyR (P23415 29-457, stated change not applied): as the sequence (P23415 29-457) above
Chain of α1:α1-β-α1 RFYF (α1: α1R65DF207A-βY231A-α1F207A) GlyR (P23415 29-457 R93D/F235A): as the sequence (P23415 29-457) above, with R65D, F207A counted along it
Chain of α1:α1-β-α1 RFYF (α1: α1R65DF207A-βY231A-α1F207A) GlyR (P48167 23-497 Y253A): as the sequence (P48167 23-497) above, with Y231A counted along it
Chain of α1:α1-β-α1 RFYF (α1: α1R65DF207A-βY231A-α1F207A) GlyR (P23415 29-457 F235A): as the sequence (P23415 29-457) above, with F207A counted along it
Chain of α1:βR86TY231A GlyR (P23415 29-457): as the sequence (P23415 29-457) above
Chain of α1:βR86TY231A GlyR (P48167 23-497 R108T/Y253A): as the sequence (P48167 23-497) above, with R86T, Y231A counted along it
Chain of α1:βY231A GlyR (P23415 29-457): as the sequence (P23415 29-457) above
Chain of α1:βY231A GlyR (P48167 23-497 Y253A): as the sequence (P48167 23-497) above, with Y231A counted along it
Chain of α1:α1-β-α1 FYF (α1: α1F207A-βY231A-α1F207A) GlyR (P23415 29-457, stated change not applied): as the sequence (P23415 29-457) above
Chain of α1:α1-β-α1 FYF (α1: α1F207A-βY231A-α1F207A) GlyR (P23415 29-457 F235A): as the sequence (P23415 29-457) above, with F207A counted along it
Chain of α1:α1-β-α1 FYF (α1: α1F207A-βY231A-α1F207A) GlyR (P48167 23-497 Y253A): as the sequence (P48167 23-497) above, with Y231A counted along it
Chain of α1:α1-β-α1 FYF (α1: α1F207A-βY231A-α1F207A) GlyR (P23415 29-457 F235A): as the sequence (P23415 29-457) above, with F207A counted along it
Chain of α1F207A:α1-β-α1 GlyR (P23415 29-457 F235A): as the sequence (P23415 29-457) above, with F207A counted along it
Chain of α1F207A:α1-β-α1 GlyR (P23415 29-457, stated change not applied): as the sequence (P23415 29-457) above
Chain of α1F207A:α1-β-α1 GlyR (P48167 23-497): as the sequence (P48167 23-497) above
Chain of α1F207A:α1-β-α1 GlyR (P23415 29-457, stated change not applied): as the sequence (P23415 29-457) above
Chain of α1F207A:β GlyR (P23415 29-457 F235A): as the sequence (P23415 29-457) above, with F207A counted along it
Chain of α1F207A:β GlyR (P48167 23-497): as the sequence (P48167 23-497) above
Chain of α1F207A:α1-β GlyR (P23415 29-457 F235A): as the sequence (P23415 29-457) above, with F207A counted along it
Chain of α1F207A:α1-β GlyR (P23415 29-457, stated change not applied): as the sequence (P23415 29-457) above
Chain of α1F207A:α1-β GlyR (P48167 23-497): as the sequence (P48167 23-497) above

NCC(=O)O [glycine, Glycine]
current remaining after desensitization ([1]; 40 μM glycine): ~ 66% | τclose ([1]; 40 μM glycine): 0.3 ± 0.1 s | τopen ([1]; 40 μM glycine): 0.6 ± 0.3 s | τdes ([1]; 40 μM glycine): 4.8 ± 0.9 s | τclose ([1]; 100 μM glycine): 0.3 ± 0.1 s | τopen ([1]; 100 μM glycine): 0.18 ± 0.03 s | τdes ([1]; 100 μM glycine): 7.5 ± 1.2 s | τclose ([1]; 200 μM glycine): 1.1 ± 0.1 s | τopen ([1]; 200 μM glycine): 0.07 ± 0.01 s | τdes ([1]; 200 μM glycine): 7.8 ± 0.6 s | current remaining after desensitization ([1]; 1 mM glycine): ~ 18% | τclose ([1]; 1000 μM glycine): 1.0 ± 0.1 s | τopen ([1]; 1000 μM glycine): 0.06 ± 0.01 s | τdes ([1]; 1000 μM glycine): 6.5 ± 0.4 s | increase in desensitization recovery time constant ([1]; 1 mM vs 40 μM glycine): ~ 7 fold | increase in the extent of desensitization ([1]; 1 mM vs 40 μM glycine): ~ 4 fold | current remaining after desensitization (residual activity) ([1]; 10 mM glycine): ~ 3% | desensitization time constants ([1]; across glycine concentrations 40 μM to 10 mM): 5 to 8 s | τclose ([1]; beyond 200 μM glycine): ~ 1.1 s | nh (Hill coefficent) [1, 12]: 2.5 ± 0.4 | minimum τopen ([1]; increased glycine concentrations, likely limited by instrument): 60 ms | Imax, maximum glycine-induced current amplitude ([1]; whole-cell, -70 mV): 7.0 ± 0.9 nA | Imax, maximum glycine-induced current amplitude [2]: 5.0 ± 0.7 nA | nh (Hill coefficent) [2, 12]: 3.1 ± 0.5 | Imax, maximum glycine-induced current amplitude [3]: 7.1 ± 0.5 nA | nh (Hill coefficent) [3, 12]: 2.1 ± 0.3 | Imax, maximum glycine-induced current amplitude [4]: 4.5 ± 0.7 nA | nh (Hill coefficent) [4, 12]: 2.2 ± 0.4 | Imax, maximum glycine-induced current amplitude [5]: 0.8 ± 0.3 nA | nh (Hill coefficent) [5, 12]: 1.6 ± 2.0 | channel activation by glycine ([5]; only 1 intact glycine site): inactive | Imax, maximum glycine-induced current amplitude [6]: 0.8 ± 0.2 nA | nh (Hill coefficent) [6, 12]: 1.4 ± 1.5 | Imax, maximum glycine-induced current amplitude [7]: 0.2 ± 0.1 nA | nh (Hill coefficent) [7, 12]: 1.0 ± 0.6 | Imax, maximum glycine-induced current amplitude [8]: 0.5 ± 0.1 nA | nh (Hill coefficent) [8, 12]: 1.8 ± 3.3 | I des / Imax ([9]; 40 μM glycine): 0.74 ± 0.05 | τclose ([9]; 40 μM glycine): 0.4 ± 0.1 s | τopen ([9]; 40 μM glycine): 0.9 ± 0.1 s | τdes ([9]; 40 μM glycine): 5.4 ± 1.2 s | I des / Imax ([9]; 100 μM glycine): 0.38 ± 0.05 | τclose ([9]; 100 μM glycine): 0.5 ± 0.1 s | τopen ([9]; 100 μM glycine): 0.5 ± 0.1 s | τdes ([9]; 100 μM glycine): 7.0 ± 1.3 s | I des / Imax ([9]; 1000 μM glycine): 0.17 ± 0.03 | τclose ([9]; 1000 μM glycine): 0.9 ± 0.3 s | τopen ([9]; 1000 μM glycine): 0.06 ± 0.01 s | τdes ([9]; 1000 μM glycine): 8.8 ± 1.8 s | EC50 ([9]; glycine response normalized to 1 mM glycine): ~100 µM | desensitization forward rate constant kdes ([10]; model parameter): 0.18 ± 0.05 and 0.18 | desensitization reverse rate constant kdes_r ([10]; model parameter): 0.007 ± 0.002 and 0.007 | rate scaler after desensitization ndes ([10]; model parameter): 0.006 ± 0.007 and 0.006 | dissociation rate constants kdα = kdβ ([10]; model parameter matched to full recording traces): 10 ± 2 | EC50 [11]: ~140 µM
